In US5149719A, “Composition for transdermal penetration of medicaments” (priority 1990, dated 1992):
Structures can show the parent of a compound that is named as a salt.

Key:
[1] = in vitro; conditions: guinea pig, Permeability Coefficient (cm/hr) ± SEM, saturated dodecanol, Example 13
[2] = for amount of higher alcohol necessary to reach a small permanent visible excess: H^3-mannitol in 30% v/v aqueous ethanol

SMILES | amount of higher alcohol necessary to reach a small permanent visible excess [2] | other results
COc1ccc([C@@H]2Sc3ccccc3N(CCN(C)C)C(=O)[C@@H]2OC(C)=O)cc1 [Diltiazem Hydrochloride] |  | Papp at 8 h ([1]; 20% v/v ethanol): 0.0336 ×10⁻⁶ cm/s; Papp at 8 h ([1]; 30% v/v ethanol): 0.0925 ×10⁻⁶ cm/s; Papp at 8 h ([1]; 40% v/v ethanol): 0.319 ×10⁻⁶ cm/s; Papp at 8 h ([1]; 50% v/v ethanol): 0.294 ×10⁻⁶ cm/s; Papp at 8 h ([1]; no ethanol): 0.00764 ×10⁻⁶ cm/s
CCCCCCCCCCO [decanol] | ~10 μl/ml | 
CCCCCCCCCCCCO [dodecanol] | ~10 μl/ml | 
CCCCCCCCCCCCCCCCO [hexadecanol] | ~0.1 mg/mL | 
CCCCCCCCCCCCCCCCCCO [octadecanol] | ~0.1 mg/mL | 
CCCCCCCCO [octanol] | ~20 μl/ml | saturating amount of octanol ([2]; 10 ml aliquots of 33% (v/v) ethanol/water with trace H^3-mannitol): 45 μl per aliquot
CCCCCO [pentanol] | 100 μl/ml | 
CCCCCCCCCCCCCCO [tetradecanol] | ~4 mg/mL | 
CCCCCCCCCCCCCO [tridecanol] | ~4 mg/mL | 
